From patent US20070225363A1, “Methods and Agents for Inhibiting Dynamin-Dependent Endocytosis” (the University of Newcastle Research Associates Ltd., priority 2003, published 2007)
Entries after “also recorded” stand apart in the source; their conditions may differ.

Tests used:
[1] = system: ΔPH domain dynamin I; test: GTPase assay with recombinant dynamin I lacking the PH domain; format: biochemical
Procedure: The plasmid for GST-Amph2-SH3 (muscle Amph2) (Butler et al., 1997) was provided by Pieto DeCamilli, Yale, Connecticut, USA, in pGEX2T vectors. The plasmid was grown in E. coli and the GST-Amph2-SH3 fusion protein was purified on glutathione (GSH)-Sepharose by elution with 10 mM reduced GSH in 20 mM Tris-HCl, pH 7.5, dialysed against the same buffer without GSH and stored at 4° C. Dynamin was purified from sheep brain by extraction from the peripheral membrane fraction of whole brain (Robinson et al., 1993) and affinity purification on GST-Amph2-SH3-sepharose as previously described (Marks and McMahon., 1998), yielding 8 mg protein from 250 g sheep brain. Recombinant dynamin II was expressed in insect cells and was a gift from Dr Sandra Schmid (Scripps, San Diego, Calif.). Recombinant dynamin I lacking the PH domain (dynamin PH, provided by Robin Scaife) was expressed in insect cells using baculoviral infection (Salim et al., 1996).
Dynamin GTPase activity was determined by hydrolysis of [ ? -^32P]GTP by a method modified from that described previously (Robinson et al., 1993). Briefly, purified dynamin I or dynamin II (0.2 μg/tube) was incubated in GTPase buffer (10 mM Tris, 10 mM NaCl, 2 mM Mg^2+, 0.05% Tween 80, pH 7.4, 1 μg/ml leupeptin and 0.1 mM PMSF) and a GTP cocktail containing 0.3 mM GTP and 1.3 μCi [ ? -^32P]-GTP in the presence or absence of varying concentrations of inhibitors or DMSO vehicle for 10 min at 30 C. The final assay volume was 40 μl. Dynamin activity was measured as either basal or phospholipid-stimulated with the addition of 5 μg/ml L-phosphatidylserine. The reaction was terminated with 100 μl of GTPase stop buffer (2% formic add, 8% acetic acid, pH 1.9), followed by 600 μl of acid-washed charcoal solution (7% charcoal in acidic solution (w/v)) and 100 μl BSA (5 mg/ml). After centrifuging for 5 min (13,000 rpm at room temperature), 200 μl of each supernatant was counted in a -counter for the release of ^32Pi from [ ? -^32P]-GTP. […]

[2] = system: Ras; test: [α-32P]-GTP binding to small G protein Ras; settings: data not shown
Procedure: (§1) Competition of these drugs with GTP for the active site of 4 small G proteins (Rab3A, Ras, Arf2, RalA) was also tested.

[3] = biological target: T1, RalA (Homo sapiens, UniProt P11233); test: [α-32P]-GTP binding to small G protein RalA; settings: data not shown
T1 sequence (P11233 1-206): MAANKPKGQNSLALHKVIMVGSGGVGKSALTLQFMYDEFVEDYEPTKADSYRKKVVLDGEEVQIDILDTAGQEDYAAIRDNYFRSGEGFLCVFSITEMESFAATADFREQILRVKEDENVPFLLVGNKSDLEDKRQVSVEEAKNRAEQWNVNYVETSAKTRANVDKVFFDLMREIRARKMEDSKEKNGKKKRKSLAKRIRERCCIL
Procedure: as §1

[4] = system: HER14 cells; test: Texas Red-transferrin uptake in HER14 cells; format: cell-based; settings: drug added 15 or 60 minutes before Tf-TxR
Procedure: Transferrin (Tf) uptake was analysed in Swiss 3T3 and HER14 cells based on methods previously described (van der Bliek et al., 1993). Briefly, cells were plated to 60% confluency in DMEM medium plus 10% foetal calf serum after which the cells were incubated overnight (8-10 hours) in DMEM minus foetal calf serum. Texas red-transferrin (Tf-TxR, Molecular Probes, Oregon) was added to a final concentration of 5 μg/ml and the cells incubated at 37° C. for 10 minutes. Cell surface staining was removed by incubating the cells in an ice cold acid wash solution (0.2 M acetic acid +0.5 M NaCl, pH 2.8) for 15 minutes. Cells were immediately fixed with 4% paraformaldehyde for 10 minutes then washed 3 times with PBS. Nuclei were stained using DAPI (Molecular Probes, Oregon). Slides were mounted using DABCO and the fluorescence was monitored using a Leica DMLB bright field microscope and SPOT digital camera.

[5] = system: isolated rat brain nerve terminals (synaptosomes); test: Electron microscopy of synaptosomes; format: cell-based; settings: 100 μM
Procedure: Synaptosomes were incubated for 5 min in Krebs-like solution containing 1.2 mM Ca^2+ then stimulated with 30 mM KCl for 2 minutes. […] After stimulation, synaptosomes were pelleted in a microfuge for 1 minute at room temperature then fixed by gentle resuspension in ice-cold phosphate buffered saline supplemented with 5% glutaraldehyde. After 1 hr they were centrifuged at low speed (2500 rpm) for 5 min at room temperature to loosely pellet the synaptosomes. The pellets were washed gently 3 times with MOPs buffer with low spins (2500 rpm) for 7 minutes then gently resuspended in a 10% bourine serum albumin (BSA) in water and allowed to stand for 20 min at room temperature. The synaptosomes were then centrifuged again for 7 minutes at low speed (2500 rpm), overlaid with Karnovsky's fixative and incubated at 4° C. overnight. The pellets were subsequently rinsed and fixed in a buffered solution of osmium tetroxide for 3 hours. Synaptosomes were then rinsed and stained for 1 hour in 2% aqueous uranyl acetate prior to being dried by a series of sequential 10 minute washes: 50% ethanol plus 0.1% NaCl, 70% ethanol plus 0.1% NaCl, 95% ethanol plus 0.1% NaCl, 100% ethanol plus 0.1% NaCl twice and 100% acetone twice. […]

N#C/C(=C\c1ccc(O)c(O)c1)C(=O)NCCCNC(=O)/C(C#N)=C/c1ccc(O)c(O)c1 [bis-tyrphostin]
ability to inhibit GTPase activity of dynamin I lacking the PH domain [1]: still inhibits
inhibition of ΔPH domain dynamin I GTP hydrolysis ([1]; at 10 μM): more than 50%
effect on [α-32P]-GTP binding to Ras [2]: neither drug affected
effect on [α-32P]-GTP binding to RalA [3]: neither drug affected
internalisation of texas-red labelled transferrin into HER14 cells [4]: very large decrease in transferrin staining; also recorded: inhibited
morphology of depolarised synaptosomes ([5]; depolarised with KCl): massive depletion of synaptic vesicles
morphology of unstimulated synaptosomes ([5]; unstimulated): no effect on their morphology
